Where “and” joins values, the source holds several entries; their conditions need not be identical. Identical values can stand only once.
Target: T1, Human P2Y1-R (Homo sapiens, UniProt P47900)
T1 construct: expressed in transfected cells; host or cells: HEK293T/17
Assay: β-arrestin 2 recruitment BRET1 assay (β-arrestin 2-RLuc / P2Y1-R-Venus) in HEK293T cells
Format: cell-based
Details: for b-arrestin 2 signaling, Ligand-modulated BRET (% of maximum MRS2179 mean value): Figure 4b, individual replicates; for Effect on β-arrestin 2 recruitment / BRET signal between P2Y1-R-Venus and β-arrestin 2-RLuc: HEK293T cells, high P2Y1-R expression, result in words; for EC50 / pEC50 ± s.e.m.: β-Arrestin 2 signaling, Fig. 4b, 15 min
Description: We assessed β-arrestin 2 recruitment to the receptor using BRET^1 assay. The assay measures the interaction between β-arrestin 2 fused to the Renilla reniformis luciferase (RLuc) energy donor and the receptor fused to fluorescent Venus energy acceptor (Fig. 3a). The recruitment of cytosolic β-arrestin 2 to the receptor at the plasma membrane in the presence of an agonist will promote a significant increase of the BRET signal compared to the basal state, reflecting the close proximity between the β-arrestin 2 energy donor and the receptor energy acceptor [22].
Human P2Y1-R (NCBI Reference Sequence: NM_002563.2) and P2Y12-R (NCBI Reference Sequence: NM_022788.3) were fused to double Myc epitope and rat AT1-R (NCBI Reference Sequence: NM_030985.4) to HA tag in N-terminus extracellular region. Alternatively, receptors were also fused to Venus tag in C-terminus intracellular region. Plasmids encoding Gαq-RLuc8, GFP2-Gγ2 and untagged Gβ1 were previously described. ADP was purchased from Sigma-Aldrich/Merck (Darmstadt, Germany). […] The Gq inhibitor (FR900359) was kindly supplied by Evi Kostenis (University of Bonn. Germany).
G protein activation and β-arrestin 2 recruitment were performed as previously described. Briefly, vectors encoding receptors, Gαq-RLuc8, GFP2-Gγ2, Gβ1, or β-arrestin 2 were transiently cotransfected into HEK293T/17 cells as indicated in the figure legends. Forty-eight hours after transfection, cells were washed and resuspended in PBS containing 0.1% (w/v) glucose at room temperature and then distributed (80 μg proteins/well) in a 96-well microplate (PerkinElmer). For G protein activation experiments (BRET^2), cells were incubated in the absence (basal BRET signal) or in the presence of ligand for 1 minute. BRET signal between RLuc8 and GFP2 was measured after addition of the luciferase substrate coelenterazine 400a (5 μM). For β-arrestin 2 recruitment (BRET^1), cells were stimulated with ligands for 5 or 15 min. BRET signal was recorded after incubation with coelenterazine h (5 μM) for 8 min. For kinetics studies, BRET signal between RLuc and Venus was recorded at 20-s intervals at basal state for the 2 first minutes and then for 5 min after ligand injection. For saturation curves (BRET^1), the expression level of Venus- or RLuc-tagged protein was determined by direct measurement of total fluorescence and luminescence respectively. Total fluorescence was first measured with an excitation filter at 485 nm and an emission filter at 520 nm. Then, the same sample was incubated for 8 minutes with 5 μM coelenterazine h and the total luminescence was measured. BRET^2 and BRET^1 readings were collected using a modified Infinite F500 (Tecan Group Ltd). The BRET^2 signal was calculated by the ratio of emission of GFP2 (510–540 nm) to RLuc8 (370–450 nm) and the BRET^1 signal by the ratio of emission of Venus (520–570 nm) to RLuc (370–480 nm). Sometimes, results are expressed as the Net BRET computed by deducting the BRET background signal (obtained in the presence of the energy donor alone) from the BRET signal (acquired from cells expressing both the energy donor and acceptor).

T1 sequence (P47900 whole entry): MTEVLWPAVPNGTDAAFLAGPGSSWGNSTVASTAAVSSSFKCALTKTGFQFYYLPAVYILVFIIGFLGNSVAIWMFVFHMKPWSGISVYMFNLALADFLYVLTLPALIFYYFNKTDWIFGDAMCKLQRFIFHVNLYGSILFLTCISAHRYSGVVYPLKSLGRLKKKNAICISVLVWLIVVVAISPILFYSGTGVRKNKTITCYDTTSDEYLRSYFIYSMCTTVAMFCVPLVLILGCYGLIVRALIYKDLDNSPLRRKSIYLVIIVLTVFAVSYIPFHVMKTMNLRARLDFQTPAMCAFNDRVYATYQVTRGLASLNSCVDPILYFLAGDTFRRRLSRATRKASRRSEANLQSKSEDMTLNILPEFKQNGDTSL

| SMILES | b-arrestin 2 signaling, Ligand-modulated BRET (% of maximum MRS2179 mean value) ([Ligand] 1.00E-04 M) | b-arrestin 2 signaling, Ligand-modulated BRET (% of maximum MRS2179 mean value) ([Ligand] 1.00E-05 M) | b-arrestin 2 signaling, Ligand-modulated BRET (% of maximum MRS2179 mean value) ([Ligand] 1.00E-06 M) | b-arrestin 2 signaling, Ligand-modulated BRET (% of maximum MRS2179 mean value) ([Ligand] 1.00E-07 M) | b-arrestin 2 signaling, Ligand-modulated BRET (% of maximum MRS2179 mean value) ([Ligand] 1.00E-08 M) | b-arrestin 2 signaling, Ligand-modulated BRET (% of maximum MRS2179 mean value) ([Ligand] 1.00E-09 M) | b-arrestin 2 signaling, Ligand-modulated BRET (% of maximum MRS2179 mean value) ([Ligand] 1.00E-10 M) | Effect on β-arrestin 2 recruitment / BRET signal between P2Y1-R-Venus and β-arrestin 2-RLuc | EC50 [µM] | pEC50 ± s.e.m. | Signaling bias (β-arrestin 2 versus Gαq protein signaling) (compared to MRS2179, from potencies of Table 1) |
| --- | --- | --- | --- | --- | --- | --- | --- | --- | --- | --- | --- |
| CNc1nc(Cl)nc2c1ncn2[C@H]1CC(OP(=O)(O)O)[C@]2(COP(=O)(O)O)C[C@H]12 (stereo in doubt) [MRS2279] | -69.6106 % of maximum MRS2179 mean value and -105.156 % of maximum MRS2179 mean value and -85.2747 % of maximum MRS2179 mean value and -86.0383 % of maximum MRS2179 mean value and -102.622 % of maximum MRS2179 mean value | -58.9493 % of maximum MRS2179 mean value and -35.292 % of maximum MRS2179 mean value and -0.8674 % of maximum MRS2179 mean value and -67.8538 % of maximum MRS2179 mean value and -74.7757 % of maximum MRS2179 mean value | -39.831 % of maximum MRS2179 mean value and -16.8165 % of maximum MRS2179 mean value and 4.878 % of maximum MRS2179 mean value and -40.0637 % of maximum MRS2179 mean value and -56.9245 % of maximum MRS2179 mean value | -39.6457 % of maximum MRS2179 mean value and -31.8109 % of maximum MRS2179 mean value and -14.3137 % of maximum MRS2179 mean value and -31.2635 % of maximum MRS2179 mean value and -51.8509 % of maximum MRS2179 mean value | -22.0748 % of maximum MRS2179 mean value and -36.9002 % of maximum MRS2179 mean value and -1.913 % of maximum MRS2179 mean value and -12.8092 % of maximum MRS2179 mean value and -19.8439 % of maximum MRS2179 mean value | -17.6957 % of maximum MRS2179 mean value and -18.0324 % of maximum MRS2179 mean value and -16.7903 % of maximum MRS2179 mean value and 1.141 % of maximum MRS2179 mean value and 5.256 % of maximum MRS2179 mean value | -24.7041 % of maximum MRS2179 mean value and -19.9635 % of maximum MRS2179 mean value and -11.9373 % of maximum MRS2179 mean value and -22.7633 % of maximum MRS2179 mean value and -19.9712 % of maximum MRS2179 mean value | behaved as inverse agonists | 19.4 | 4.712 ± 0.2838 |  |
| CNc1nc(I)nc2c1ncn2[C@H]1C[C@H](OP(=O)(O)O)[C@]2(COP(=O)(O)O)C[C@H]12 [MRS2500, 2-iodo-N6-methyl-(N)-methanocarba-2′-deoxyadenosine-3′,5′-bisphosphate] | -104.002 % of maximum MRS2179 mean value and -94.5729 % of maximum MRS2179 mean value and -88.0915 % of maximum MRS2179 mean value and -87.9506 % of maximum MRS2179 mean value and -95.5776 % of maximum MRS2179 mean value | -100.008 % of maximum MRS2179 mean value and -86.7675 % of maximum MRS2179 mean value and -90.0217 % of maximum MRS2179 mean value and -77.5434 % of maximum MRS2179 mean value and -80.2036 % of maximum MRS2179 mean value | -95.5169 % of maximum MRS2179 mean value and -78.4136 % of maximum MRS2179 mean value and -91.3759 % of maximum MRS2179 mean value and -80.0813 % of maximum MRS2179 mean value and -75.5319 % of maximum MRS2179 mean value | -75.2707 % of maximum MRS2179 mean value and -41.8369 % of maximum MRS2179 mean value and -76.2614 % of maximum MRS2179 mean value and -66.0129 % of maximum MRS2179 mean value and -61.7221 % of maximum MRS2179 mean value | -7.396 % of maximum MRS2179 mean value and -28.7379 % of maximum MRS2179 mean value and -20.7409 % of maximum MRS2179 mean value and -45.6895 % of maximum MRS2179 mean value and -5.348 % of maximum MRS2179 mean value | -12.4711 % of maximum MRS2179 mean value and -18.0888 % of maximum MRS2179 mean value and -11.5273 % of maximum MRS2179 mean value and -5.043 % of maximum MRS2179 mean value and 9.479 % of maximum MRS2179 mean value | -23.8118 % of maximum MRS2179 mean value and -10.0375 % of maximum MRS2179 mean value and -6.745 % of maximum MRS2179 mean value and -2.51 % of maximum MRS2179 mean value and -4.926 % of maximum MRS2179 mean value | behaved as inverse agonists | 0.0475 | 7.323 ± 0.1193 | biased inverse agonist |
